# Assay results from BindingDB's records for doi:10.1016/S0960-894X(00)80680-0 (1993).
# pIC50: −log10 of the molar value.
# Experiment: Displacement of [125I]Bolton-Hunter-CCK-8 from guinea pig cortex Cholecystokinin type B receptor
row,Structure (SMILES),pIC50
1,CC(C)(C)OC(=O)N[C@@H](Cc1c[nH]c2ccccc12)C(=O)N[C@@H](CCCCNC(=O)C=Cc1ccc(O)cc1)C(=O)N[C@H](CNN[C@@H](Cc1ccccc1)C(N)=O)CC(=O)O [(S)-3-{2-[2-tert-Butoxycarbonylamino-3-(1H-indol-3-yl)-propionylamino]-6-[(S)-3-((S)-4-hydroxy-phenyl)-acryloylamino]-hexanoylamino}-4-[N'-((S)-1-carbamoyl-2-phenyl-ethyl)-hydrazino]-butyric acid],5.15
2,CC(C)(C)OC(=O)N[C@@H](Cc1c[nH]c2ccccc12)C(=O)N[C@@H](CCCCNC(=O)C=Cc1ccc(O)cc1)CNN[C@@H](CC(=O)O)C(=O)N[C@@H](Cc1ccccc1)C(N)=O [3-(N'-{(S)-2-[(S)-2-tert-Butoxycarbonylamino-3-(1H-indol-3-yl)-propionylamino]-6-[(Z)-3-(4-hydroxy-phenyl)-acryloylamino]-hexyl}-hydrazino)-N-((S)-1-carbamoyl-2-phenyl-ethyl)-succinamic acid],5.42
3,"Cc1ccccc1NC(=O)NCCCC[C@H](NC(=O)[C@H](Cc1c[nH]c2ccccc12)NC(=O)OC(C)(C)C)C(=O)N[C@H](CNN[C@@H](Cc1ccccc1)C(N)=O)CC(=O)O [3-{2-[2-tert-Butoxycarbonylamino-3-(1H-indol-3-yl)-propionylamino]-6-[(S)-3-((1S,2S)-o-tolyl)-ureido]-hexanoylamino}-4-[N'-((S)-1-carbamoyl-2-phenyl-ethyl)-hydrazino]-butyric acid]",< 5.00
4,"Cc1ccccc1NC(=O)NCCCC[C@@H](CNN[C@@H](CC(=O)O)C(=O)N(C)[C@@H](Cc1ccccc1)C(N)=O)NC(=O)[C@H](Cc1c[nH]c2ccccc12)NC(=O)OC(C)(C)C [(S)-3-{N'-[2-((3aS,7S)-2-tert-Butoxycarbonylamino-3-1H-indol-3-yl-propionylamino)-6-(3-o-tolyl-ureido)-hexyl]-hydrazino}-N-((S)-1-carbamoyl-2-phenyl-ethyl)-N-methyl-succinamic acid]",< 5.00
5,Cc1ccccc1NC(=O)NCCCC[C@H](NNC[C@H](Cc1c[nH]c2ccccc12)NC(=O)OC(C)(C)C)C(=O)N[C@@H](CC(=O)O)C(=O)N[C@@H](Cc1ccccc1)C(N)=O [(S)-3-[(S)-2-[N'-((S)-2-tert-Butoxycarbonylamino-3-1H-indol-3-yl-propyl)-hydrazino]-6-(3-o-tolyl-ureido)-hexanoylamino]-N-((S)-1-carbamoyl-2-phenyl-ethyl)-succinamic acid],5.60
6,CN(C(=O)[C@H](CC(=O)O)NNC[C@H](CCCCNC(=O)C=Cc1ccc(O)cc1)NC(=O)[C@H](Cc1c[nH]c2ccccc12)NC(=O)OC(C)(C)C)[C@@H](Cc1ccccc1)C(N)=O [3-(N'-{(S)-2-[(S)-2-tert-Butoxycarbonylamino-3-(1H-indol-3-yl)-propionylamino]-6-[(Z)-3-(4-hydroxy-phenyl)-acryloylamino]-hexyl}-hydrazino)-N-((S)-1-carbamoyl-2-phenyl-ethyl)-N-methyl-succinamic acid],5.30
